Assay results published in paper PMC6015222, “Targeting Phosphopeptide Recognition by the Human BRCA1 Tandem BRCT Domain to Interrupt BRCA1-Dependent Signaling” (Cell Chemical Biology, 2018).

Key:
ECT2 BRCT = molecular target: T1, ECT2 BRCT (Homo sapiens, UniProt Q9H8V3); test: Competitive MST selectivity: ECT2; assay type: binding
T1 construct: ECT2 BRCT residues 22-326; 6x His (N); made in house; host or cells: E. coli C41(DE3)
T1 sequence (Q9H8V3 22-326 isoform Q9H8V3-4): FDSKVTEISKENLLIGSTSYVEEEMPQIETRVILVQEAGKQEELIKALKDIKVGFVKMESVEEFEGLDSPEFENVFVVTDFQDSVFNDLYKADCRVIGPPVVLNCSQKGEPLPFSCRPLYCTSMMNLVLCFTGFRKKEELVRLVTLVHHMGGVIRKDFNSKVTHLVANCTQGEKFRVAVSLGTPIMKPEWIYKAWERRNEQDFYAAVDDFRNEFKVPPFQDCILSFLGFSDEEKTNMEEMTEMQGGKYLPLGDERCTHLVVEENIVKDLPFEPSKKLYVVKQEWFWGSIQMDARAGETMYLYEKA
Procedure: (§1) Protein domains used in the assay were labeled with NT-647-NHS fluorescent dye using the Monolith NT™ Protein Labeling Kit (NanoTemper Technologies). Assays were carried out in 20mM Tris buffer, pH 7.4, with 200mM NaCl, 0.05% Tween-20 and 2mM DTT. For the direct binding assay, 10μl of labeled protein at a final concentration of 20nM was mixed with 10μl of test compound and incubated on ice for 10 min. For the competitive assay, 10μl of labeled protein at a final concentration of 20nM was mixed with 2μM cognate peptide substrate at the EC80 concentration determined by prior titration using a 16-point serial dilution by direct-binding MST. For both assays, samples prepared as above were centrifuged at 15000 rpm at 4°C for 10 min and 4μl of the supernatant was loaded into premium glass capillaries (NanoTemper Technologies). MST analysis was performed at MST power of 40% and LED power of 80%, at 22°C temperature using a Monolith NT.115 (NanoTemper Technologies). An initial “Capillary Scan” was performed to scan for fluorescence across the length of the capillary tray to determine the exact position of each capillary before the MST measurement was started. Test compounds were assayed at 16 different concentrations by serial dilution, and data were analysed using NanoTemper analysis software. Kd values were determined using “T-jump + Thermophoresis” settings. […]

TOPBP1 foci = test: Radiation-induced TOPBP1 foci, U2OS cells; assay type: cell-based; conditions: 100 μM added 6 h after irradiation
MCPH1 tBRCT 2/3 = molecular target: T2, MCPH1 tBRCT 2/3 (Homo sapiens, UniProt Q8NEM0); test: Competitive MST selectivity: MCPH1 tBRCT; assay type: binding
T2 construct: MCPH1 tBRCT 2/3 residues 640-835; 6x His (N); made in house; host or cells: E. coli BL21(DE3)
T2 sequence (Q8NEM0 640-835): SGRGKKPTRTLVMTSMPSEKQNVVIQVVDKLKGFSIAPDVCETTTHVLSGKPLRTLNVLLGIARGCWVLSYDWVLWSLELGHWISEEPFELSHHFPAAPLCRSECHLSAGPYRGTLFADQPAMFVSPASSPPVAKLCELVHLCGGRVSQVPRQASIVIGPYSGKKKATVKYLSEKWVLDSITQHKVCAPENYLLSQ
Procedure: as §1

HEK293 cells = test: Cell cycle profiles by flow cytometry after 4 Gy (damage-induced G2 arrest); assay type: cell-based, human; conditions: 10–100 μM Bractoppin or 100 μM CCBT2047 added 0.5 hr before radiation
Procedure: HEK293 cells stably harboring plasmids for Tet-inducible expression of tBRCT domains were seeded on 12-well plates at 1.8 X10^5 cells/well. Cells were thymidine blocked and synchronously released into the cell cycle following irradiation at 4Gy, without or with exposure to compounds (at final concentrations with 0.5% DMSO) in serum-containing media for 16 h. Cells were re-suspended in 1x PBS, fixed with 80% ethanol, and permeabilized in buffer containing 0.1% Tween-20 in PBS (PBST), for 20’ at RT. DAPI staining was used to quantify nuclear DNA content. Analysis was performed using a Beckman Coulter Gallios analyzer, and quantified using the Dean-Jet algorithm in FlowJo software.

RPA32 foci = test: Radiation-induced nuclear RPA32 foci; assay type: cell-based, human; conditions: 100 μM, 16 Gy, as Figure 5A
Procedure: HEK293 cells stably harboring plasmids for Tet-inducible expression of tBRCT domains were seeded at 30,000 cells/well on Matrigel-coated 96-well plates, and treated as indicated. Cells were fixed in 2.5% PFA, for 20’ at RT and incubated in 1x PBS with 10% FBS plus 0.5% TritonX-100 for 1 h for blocking and permeabilization. Primary antibody staining was performed at the indicated dilutions in PBST-BSA buffer (0.7mg/ml BSA, 0.05% Tween-20 in 1XPBS) for 1h at RT. Cells were then extensively washed in PBST-BSA buffer and stained with goat-anti-mouse Alexa 488 secondary antibody (Invitrogen), at 1:1000 dilution along with 2.5μg/ml DAPI for nuclear staining. […] Images were acquired on a high-content imaging platform (Cellomics ArrayScan VTI HCS Reader (Thermo Fisher Scientific)) using a 40x objective. On average ∼800 fields from 6-well replicates, containing a total of ∼10-20K cells were imaged per treatment group and quantified using image analysis software (in-house algorithms using MatLab and commercially available HCS studio 2.0 from Thermo Fisher Scientific). […] Cut-off values for foci number per cell specifying the maximal difference between control and irradiated samples were determined to calculate the percentage of cells positive for radiation-induced foci. […]

TOPBP1 BRCT 1/2 = molecular target: T3, TOPBP1 BRCT 1/2 (Homo sapiens, UniProt Q92547); test: Competitive MST selectivity: TOPBP1 1/2; assay type: binding
T3 construct: TOPBP1 BRCT 1/2 residues 1-290; 6x His (N); made in house; host or cells: E. coli BL21(DE3)
Procedure: as §1

O=C(c1ccc2nc(-c3ccccc3)[nH]c2c1)N1CCN(Cc2ccccc2F)CC1 [Bractoppin, (4-(2-fluorobenzyl)piperazin-1-yl) (2-phenyl-1H-benzo[d]imidazol-6-yl) methanone]
binding to fluorescently labeled ECT2 tBRCT domain (ECT2 BRCT): does not detectably bind
effect on radiation-induced recruitment of TOPBP1 (TOPBP1 foci): little effect
binding to fluorescently labeled MCPH1 tBRCT domain (MCPH1 tBRCT 2/3): does not detectably bind
effect on damage-induced G2 arrest (HEK293 cells): inhibited in a dose-dependent manner
effect on RPA32 accumulation (RPA32 foci): little effect
binding to fluorescently labeled TOPBP1 1/2 tBRCT domain (TOPBP1 BRCT 1/2): does not detectably bind
